Molecules are shown by their SMILES. Bridge positions count the residues as written; N and C are the ends. Square brackets hold non-standard residues; d marks the D form. Peptide text beside a SMILES is read from it. * marks the point of attachment. ξ: configuration not given here. Ala(morpholin-4-yl) = N[C@@H](CN1CCOCC1)C(=O)O; Phe(4-CONH2) = NC(=O)c1ccc(C[C@H](N)C(=O)O)cc1; Bip = N[C@@H](Cc1ccc(-c2ccccc2)cc1)C(=O)O; Phe(3-Me) = Cc1cccc(C[C@H](N)C(=O)O)c1; NH(CH2)12COOH = O=C(O)CCCCCCCCCCCCN*; Val(3-OH) = CC(C)(O)[C@H](N)C(=O)O; Aha = [N-]=[N+]=NCC[C@H](N)C(=O)O; Cha = N[C@@H](CC1CCCCC1)C(=O)O; Cit = NC(=O)NCCC[C@H](N)C(=O)O; NMeN = CN[C@@H](CC(N)=O)C(=O)O; Thr(3ξ) = CC(O)[C@H](N)C(=O)O; Carboxymethyl = O=C(O)C*; Orn = NCCC[C@H](N)C(=O)O; Aun = NCCCCCCCCCCC(=O)O; Dab = NCC[C@H](N)C(=O)O; Dap = NC[C@H](N)C(=O)O; AEEA = NCCOCCOCC(=O)O; Ac3c = NC1(C(=O)O)CC1

The target of the test is T1, PD-1/PD-L1 interaction (PE-labeled human PD-L1-Ig binding to Jurkat cell line over-expressing human PD-1) (Homo sapiens, UniProt Q15116).
T1 construct: expressed in transfected cells; host or cells: Jurkat
T1 sequence (Q15116 25-288): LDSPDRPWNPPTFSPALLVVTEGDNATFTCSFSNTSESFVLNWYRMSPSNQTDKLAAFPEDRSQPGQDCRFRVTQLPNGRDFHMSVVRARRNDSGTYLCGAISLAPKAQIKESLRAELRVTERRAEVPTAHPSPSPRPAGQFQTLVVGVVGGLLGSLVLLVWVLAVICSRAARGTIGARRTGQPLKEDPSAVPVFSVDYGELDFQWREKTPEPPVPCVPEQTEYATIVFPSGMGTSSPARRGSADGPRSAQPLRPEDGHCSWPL
The test is described as follows: Jurkat-PD-1 Cell Binding High-Content Screening Assay (CBA). It counts as cell-based. Conditions: Jurkat cell line over-expressing human PD-1; PE-labeled PD-L1-Ig 20 nM final; read-out: Jurkat hPD1-PDL1 IC50. Summed up: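 Binding of fluorescent PD-L1-Ig (20 nM final) to Jurkat-PD-1 cells was measured by automated imaging after 1 h, following a 2 h compound pre-treatment at 37° C.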
The term IC50 denotes the midpoint of a concentration-inhibition curve. `Cc1cccc(C[C@@H]2NC(=O)[C@H](CC(=O)O)NC(=O)[C@H](Cc3ccc(OCC(=O)O)cc3)NC(=O)[C@H](C(C)O)NC(=O)CSC[C@@H](C(=O)N(C)[C@@H](CC(N)=O)C(=O)NCCCCCCCCCCC(=O)O)NC(=O)[C@H](CCCCN)NC(=O)[C@H](C(C)C)NC(=O)[C@H](CC3CCCCC3)NC(=O)[C@H](CCN)NC(=O)[C@@H](CC(C)C)NC(=O)[C@H](CCCN)NC(=O)[C@H](C(C)C)NC(=O)[C@H](Cc3ccc(-c4ccccc4)cc3)NC(=O)[C@H](C(C)C)NC2=O)c1` (stereo partly drawn) [Compound 3340] ({CH2CO}-[Thr(3ξ)]Y(Carboxymethyl)D[Phe(3-Me)]V[Bip]V[Orn][dL][Dab][Cha]VKC[NMeN][Aun]-OH; thioether N-14): the IC50 worked out at 8.7 nM.

With `Cc1cccc(C[C@@H]2NC(=O)[C@H](CC(=O)O)NC(=O)[C@H](Cc3ccc(OCC(=O)O)cc3)NC(=O)[C@H](CN)NC(=O)CSC[C@@H](C(=O)N[C@@H](CCCCN)C(=O)NCCOCCOCC(=O)NCCCCCCCCCCC(=O)O)NC(=O)[C@H](CCCN)NC(=O)[C@H](C(C)C)NC(=O)[C@H](CC3CCCCC3)NC(=O)[C@H](CCN)NC(=O)[C@@H](CC(C)C)NC(=O)[C@H](CCCN)NC(=O)[C@H](C(C)C)NC(=O)[C@H](Cc3ccc(-c4ccccc4)cc3)NC(=O)[C@H](C(C)C)NC2=O)c1` [Compound 2527] ({CH2CO}-[Dap]Y(Carboxymethyl)D[Phe(3-Me)]V[Bip]V[Orn][dL][Dab][Cha]V[Orn]CK[AEEA][Aun]-OH; thioether N-14), the IC50 amounted to 6.8 nM.

Consider `Cc1cccc(C[C@@H]2NC(=O)[C@H](CC(=O)O)NC(=O)[C@H](Cc3ccc(OCC(=O)O)cc3)NC(=O)[C@H](Cc3ccc(C(N)=O)cc3)NC(=O)CSC[C@@H](C(=O)N[C@@H](CCCCN)C(=O)NCCCCCCCCCCC(=O)O)NC(=O)[C@H](CCCCN)NC(=O)[C@H](C(C)O)NC(=O)[C@H](CC3CCCCC3)NC(=O)[C@H](CCN)NC(=O)[C@@H](CC(C)C)NC(=O)[C@H](CCCN)NC(=O)[C@H](Cc3ccc(O)cc3)NC(=O)[C@H](Cc3ccc(-c4ccccc4)cc3)NC(=O)[C@H](C(C)C)NC2=O)c1` (stereo partly drawn) [Compound 3600] ({CH2CO}-[Phe(4-CONH2)]Y(Carboxymethyl)D[Phe(3-Me)]V[Bip]Y[Orn][dL][Dab][Cha][Thr(3ξ)]KCK[Aun]-OH; thioether N-14), for which the IC50 stood at 40.1 nM.

Regarding `Cc1cccc(C[C@@H]2NC(=O)[C@H](CC(=O)O)NC(=O)[C@H](Cc3ccc(OCC(=O)O)cc3)NC(=O)[C@H](CCCNC(=N)N)NC(=O)CSC[C@@H](C(=O)N[C@@H](CCCCN)C(=O)NCCCCCCCCCCC(=O)O)NC(=O)[C@H]([C@@H](C)O)NC(=O)[C@H](C(C)C)NC(=O)[C@H](CC3CCCCC3)NC(=O)[C@H](CCN)NC(=O)[C@@H](CC(C)C)NC(=O)[C@H](CCCN)NC(=O)[C@H](Cc3ccc(OCC(=O)O)cc3)NC(=O)[C@H](Cc3ccc(-c4ccccc4)cc3)NC(=O)[C@H](Cc3ccc(OCC(=O)O)cc3)NC2=O)c1` [Compound 1296] ({CH2CO}-RY(Carboxymethyl)D[Phe(3-Me)]Y(Carboxymethyl)[Bip]Y(Carboxymethyl)[Orn][dL][Dab][Cha]VTCK[Aun]-OH; thioether N-14), the IC50 turned out to be 24 nM.

For `Cc1cccc(C[C@@H]2NC(=O)[C@H](CC(=O)O)NC(=O)[C@H](Cc3ccc(OCC(=O)O)cc3)NC(=O)[C@H](CCCNC(=N)N)NC(=O)CSC[C@@H](C(=O)N[C@@H](CCN)C(=O)NCCCCCCCCCCC(=O)O)NC(=O)[C@H](C(C)O)NC(=O)[C@H](C(C)C)NC(=O)[C@H](CC3CCCCC3)NC(=O)[C@H](CCN)NC(=O)[C@@H](CC(C)C)NC(=O)[C@H](CCC(N)=O)NC(=O)[C@H](Cc3ccc(O)cc3)NC(=O)[C@H](Cc3ccc(-c4ccccc4)cc3)NC(=O)[C@H](Cc3ccc(O)cc3)NC2=O)c1` (stereo partly drawn) [Compound 3370] ({CH2CO}-RY(Carboxymethyl)D[Phe(3-Me)]Y[Bip]YQ[dL][Dab][Cha]V[Thr(3ξ)]C[Dab][Aun]-OH; thioether N-14), the IC50 amounted to 12.6 nM.

For the compound `Cc1cccc(C[C@@H]2NC(=O)[C@H](CC(=O)O)NC(=O)[C@H](Cc3ccc(OCC(=O)O)cc3)NC(=O)[C@H](CCCNC(=N)N)NC(=O)CSC[C@@H](C(=O)NC3(C(=O)NCCCCCCCCCCC(=O)O)CC3)NC(=O)[C@H](CCCN)NC(=O)[C@H](C(C)C)NC(=O)[C@H](CC3CCCCC3)NC(=O)[C@H](CCN)NC(=O)[C@@H](CC(C)C)NC(=O)[C@H](CCCN)NC(=O)[C@H](Cc3ccc(OCC(=O)O)cc3)NC(=O)[C@H](Cc3ccc(-c4ccccc4)cc3)NC(=O)[C@H](Cc3ccc(OCC(=O)O)cc3)NC2=O)c1` [Compound 2136] ({CH2CO}-RY(Carboxymethyl)D[Phe(3-Me)]Y(Carboxymethyl)[Bip]Y(Carboxymethyl)[Orn][dL][Dab][Cha]V[Orn]C[Ac3c][Aun]-OH; thioether N-14), the concentration for half-maximal inhibition (IC50) stood at 3.1 nM.

For the compound `Cc1cccc(C[C@@H]2NC(=O)[C@H](CC(=O)O)NC(=O)[C@H](Cc3ccc(OCC(=O)O)cc3)NC(=O)[C@H](CCCNC(=N)N)NC(=O)CSC[C@@H](C(=O)N[C@@H](CCCN)C(=O)NCCCCCCCCCCC(=O)O)NC(=O)[C@H]([C@@H](C)O)NC(=O)[C@H](C(C)C)NC(=O)[C@H](CC3CCCCC3)NC(=O)[C@H](CCN)NC(=O)[C@@H](CC(C)C)NC(=O)[C@H](CCCN)NC(=O)[C@H](CCCNC(N)=O)NC(=O)[C@H](Cc3ccc(-c4ccccc4)cc3)NC(=O)[C@H](Cc3ccc(O)cc3)NC2=O)c1` [Compound 2835] ({CH2CO}-RY(Carboxymethyl)D[Phe(3-Me)]Y[Bip][Cit][Orn][dL][Dab][Cha]VTC[Orn][Aun]-OH; thioether N-14), the IC50 was 18.9 nM.

With `Cc1cccc(C[C@@H]2NC(=O)[C@H](CC(=O)O)NC(=O)[C@H](Cc3ccc(OCC(=O)O)cc3)NC(=O)[C@H](CN3CCOCC3)NC(=O)CSC[C@@H](C(=O)N[C@@H](CCN)C(=O)NCCOCCOCC(=O)NCCOCCOCC(=O)NCCCCCCCCCCCCC(=O)O)NC(=O)[C@H](CO)NC(=O)[C@H](C(C)(C)O)NC(=O)[C@H](CC3CCCCC3)NC(=O)[C@H](CCN)NC(=O)[C@@H](CC(C)C)NC(=O)[C@H](CCCN)NC(=O)[C@H](Cc3ccc(OCC(=O)O)cc3)NC(=O)[C@H](Cc3ccc(-c4ccccc4)cc3)NC(=O)[C@H](Cc3ccc(OCC(=O)O)cc3)NC2=O)c1` [Compound 2896] ({CH2CO}-[Ala(morpholin-4-yl)]Y(Carboxymethyl)D[Phe(3-Me)]Y(Carboxymethyl)[Bip]Y(Carboxymethyl)[Orn][dL][Dab][Cha][Val(3-OH)]SC[Dab][AEEA][AEEA]-{NH(CH2)12COOH}; thioether N-14), the IC50 was 4.1 nM.

Regarding `CC(C)C[C@@H]1NC(=O)[C@H](Cc2c[nH]c3ccccc23)NC(=O)[C@H](CC(=O)O)NC(=O)[C@H](Cc2ccc(OCC(=O)O)cc2)NC(=O)[C@H](C(C)O)NC(=O)CSC[C@@H](C(=O)N[C@@H](CCN)C(=O)NCCCCCCCCCCC(=O)O)NC(=O)[C@H](CN)NC(=O)[C@H](C(C)O)NC(=O)[C@H](CC2CCCCC2)NC(=O)[C@H](CCN)NC(=O)[C@@H](CC(C)C)NC(=O)[C@H](CCCN)NC(=O)[C@H](Cc2ccc(O)cc2)NC(=O)[C@H](Cc2ccc(-c3ccccc3)cc2)NC1=O` (stereo partly drawn) [Compound 3671] ({CH2CO}-[Thr(3ξ)]Y(Carboxymethyl)DWL[Bip]Y[Orn][dL][Dab][Cha][Thr(3ξ)][Dap]C[Dab][Aun]-OH; thioether N-14), the half-inhibitory concentration (IC50) stood at 105 nM.

In the case of `CC(C)C[C@H]1NC(=O)[C@H](CCCN)NC(=O)[C@H](C(C)C)NC(=O)[C@H](Cc2ccc(-c3ccccc3)cc2)NC(=O)[C@H](C(C)C)NC(=O)[C@H](Cc2c[nH]c3ccccc23)NC(=O)[C@H](CC(=O)O)NC(=O)[C@H](Cc2ccc(OCC(=O)O)cc2)NC(=O)[C@H](Cc2ccc(OCC(=O)O)cc2)NC(=O)CSC[C@@H](C(=O)NCCOCCOCC(=O)N[C@@H](CCN)C(=O)NCCCCCCCCCCC(=O)O)NC(=O)[C@H](CCCNC(=N)N)NC(=O)[C@H](C(C)C)NC(=O)[C@H](CC2CCCCC2)NC(=O)[C@H](CCN)NC1=O` [Compound 2540] ({CH2CO}-Y(Carboxymethyl)Y(Carboxymethyl)DWV[Bip]V[Orn][dL][Dab][Cha]VRC[AEEA][Dab][Aun]-OH; thioether N-14), the IC50 was found to be 7 nM.

With `Cc1cccc(C[C@@H]2NC(=O)[C@H](CC(=O)O)NC(=O)[C@H](Cc3ccc(OCC(=O)O)cc3)NC(=O)[C@H](CN)NC(=O)CSC[C@@H](C(=O)N[C@@H](CCN)C(=O)N[C@@H](CO)C(=O)N[C@@H](CO)C(=O)NCCCCCCCCCCC(=O)O)NC(=O)[C@H]([C@@H](C)O)NC(=O)[C@H](C(C)C)NC(=O)[C@H](CC3CCCCC3)NC(=O)[C@H](CCN)NC(=O)[C@@H](CC(C)C)NC(=O)[C@H](CCCN)NC(=O)[C@H](CCCNC(N)=O)NC(=O)[C@H](Cc3ccc(-c4ccccc4)cc3)NC(=O)[C@H](C(C)C)NC2=O)c1` [Compound 2853] ({CH2CO}-[Dap]Y(Carboxymethyl)D[Phe(3-Me)]V[Bip][Cit][Orn][dL][Dab][Cha]VTC[Dab]SS[Aun]-OH; thioether N-14), the IC50 worked out at 65.5 nM.

With `Cc1cccc(C[C@@H]2NC(=O)[C@H](CC(=O)O)NC(=O)[C@H](Cc3ccc(OCC(=O)O)cc3)NC(=O)[C@H](CN3CCOCC3)NC(=O)CSC[C@@H](C(=O)N[C@@H](CCN)C(=O)N[C@@H](CCN=[N+]=[N-])C(=O)NCCCCCCCCCCC(=O)O)NC(=O)[C@H](CO)NC(=O)[C@H](C(C)(C)O)NC(=O)[C@H](CC3CCCCC3)NC(=O)[C@H](CCN)NC(=O)[C@@H](CC(C)C)NC(=O)[C@H](CCCN)NC(=O)[C@H](Cc3ccc(OCC(=O)O)cc3)NC(=O)[C@H](Cc3ccc(-c4ccccc4)cc3)NC(=O)[C@H](Cc3ccc(OCC(=O)O)cc3)NC2=O)c1` [Compound 1281] ({CH2CO}-[Ala(morpholin-4-yl)]Y(Carboxymethyl)D[Phe(3-Me)]Y(Carboxymethyl)[Bip]Y(Carboxymethyl)[Orn][dL][Dab][Cha][Val(3-OH)]SC[Dab][Aha][Aun]-OH; thioether N-14), the IC50 amounted to 4.7 nM.
